Results: publication PMC12722308, “A phase 1 study of orally administered 5-fluoro-2’-deoxycytidine with tetrahydrouridine in patients with refractory solid tumors” (Cancer Chemotherapy and Pharmacology, 2025)
Values joined by “and” are separate entries in the source; they are usually repeats but may differ in a detail not shown here. Equal values may be shown once. Read-outs that look alike come from different tables or passages of the source. Marks after values point to notes of the source that are not given here.

Test: Plasma pharmacokinetics by LC-MS/MS
Type: in vivo, human
Conditions: for Tmax: read-out: FdCyd Tmax; for Vd/F: read-out: FdCyd Vz/F; for half-life: read-out: FdCyd t½ (converted); for AUC(0-inf): read-out: FdCyd AUC0-inf; for Cmax: read-out: FdCyd Cmax; for FdCyd2h-D2: day 2; for FdCyd2h-D3: day 3
Method: Blood specimens for PK analysis were collected on Cycle 1 Day 1 (C1D1) prior to THU administration and then at 15, 30, and 45 min and 1, 2, 3, 4, 5, and 6 h after THU administration, as well as on C1D2 and C1D3 prior to and 2 h after THU administration. Urine specimens for PK analysis were collected on C1D1 prior to treatment and then at every void from 0 to 24 h after THU administration. All specimens for PK analysis were processed and analyzed by LC-MS/MS as described previously, and Phoenix WinNonlin software was used for data analysis.

[1] = All FdCyd doses + THU 3000 mg oral (n=44), geom. mean (geom. SD)
[2] = All FdCyd doses + THU 6000 mg oral (n=11), geom. mean (geom. SD)
[3] = DL1: FdCyd 30 mg + THU 3000 mg oral (n=3), geom. mean (geom. SD)
[4] = DL2: FdCyd 60 mg + THU 3000 mg oral (n=4), geom. mean (geom. SD)
[5] = DL3: FdCyd 90 mg + THU 3000 mg oral (n=3), geom. mean (geom. SD)
[6] = DL4: FdCyd 120 mg + THU 3000 mg oral (n=3), geom. mean (geom. SD)
[7] = DL5-9: FdCyd 160 mg + THU 3000 mg oral (n=31), geom. mean (geom. SD)
[8] = DL10: FdCyd 60 mg + THU 6000 mg oral (n=8), geom. mean (geom. SD)
[9] = DL11: FdCyd 80 mg + THU 6000 mg oral (n=3), geom. mean (geom. SD)
[10] = Total, all dose levels (n=55), geom. mean (geom. SD)
[11] = human, plasma, oral, Total, all dose levels (n=55), geom. mean (geom. SD)
[12] = human, plasma, po, All FdCyd doses + THU 3000 mg oral (n=44), geom. mean (geom. SD)
[13] = human, plasma, po, All FdCyd doses + THU 6000 mg oral (n=11), geom. mean (geom. SD)
[14] = human, plasma, po, DL1: FdCyd 30 mg + THU 3000 mg oral (n=3), geom. mean (geom. SD)
[15] = human, plasma, po, DL2: FdCyd 60 mg + THU 3000 mg oral (n=4), geom. mean (geom. SD)
[16] = human, plasma, po, DL3: FdCyd 90 mg + THU 3000 mg oral (n=3), geom. mean (geom. SD)
[17] = human, plasma, po, DL4: FdCyd 120 mg + THU 3000 mg oral (n=3), geom. mean (geom. SD)
[18] = human, plasma, po, DL5-9: FdCyd 160 mg + THU 3000 mg oral (n=31), geom. mean (geom. SD)
[19] = human, plasma, po, DL10: FdCyd 60 mg + THU 6000 mg oral (n=8), geom. mean (geom. SD)
[20] = human, plasma, po, DL11: FdCyd 80 mg + THU 6000 mg oral (n=3), geom. mean (geom. SD)
[21] = plasma FdCyd at 2 h, DL1: FdCyd 30 mg + THU 3000 mg oral (n=3), geom. mean (geom. SD)
[22] = plasma FdCyd at 2 h, DL2: FdCyd 60 mg + THU 3000 mg oral (n=4), geom. mean (geom. SD)
[23] = plasma FdCyd at 2 h, DL3: FdCyd 90 mg + THU 3000 mg oral (n=3), geom. mean (geom. SD)
[24] = plasma FdCyd at 2 h, DL4: FdCyd 120 mg + THU 3000 mg oral (n=3), geom. mean (geom. SD)
[25] = plasma FdCyd at 2 h, DL5-9: FdCyd 160 mg + THU 3000 mg oral (n=31), geom. mean (geom. SD)
[26] = plasma FdCyd at 2 h, DL10: FdCyd 60 mg + THU 6000 mg oral (n=8), geom. mean (geom. SD)
[27] = plasma FdCyd at 2 h, DL11: FdCyd 80 mg + THU 6000 mg oral (n=3), geom. mean (geom. SD)

Nc1nc(=O)n([C@H]2C[C@H](O)[C@@H](CO)O2)cc1F [FdCyd, 5-fluoro-2’-deoxycytidine]
FdCyd Cl/F [1]: 123 L/h and 123 (2.37)^c L/h
FdCyd Cmax/Dose [1]: 4.0 (2.2)^b µg/L / mg
FdCyd Cl/F [2]: 85.7 (1.65)^c L/h
FdCyd Cmax/Dose [2]: 6.6 (1.6)^b µg/L / mg
FdCyd Cl/F [3]: 212 (2.77) L/h
FdCyd Cmax/Dose [3]: 3.0 (2.3) µg/L / mg
FdCyd Cl/F [4]: 95.7 (3.08) L/h
FdCyd Cmax/Dose [4]: 4.9 (3.0) µg/L / mg
FdCyd Cl/F [5]: 84.7 (1.91) L/h
FdCyd Cmax/Dose [5]: 5.8 (1.8) µg/L / mg
FdCyd AUC0-inf [6]: 1.59 (2.43) mg/L•h
FdCyd Cl/F [6]: 75.6 (2.43) L/h
FdCyd Cmax/Dose [6]: 7.4 (2.0) µg/L / mg
FdCyd Cl/F [7]: 133 (2.35) L/h
FdCyd Cmax/Dose [7]: 3.6 (2.1) µg/L / mg
FdCyd Cl/F [8]: 96.0 (1.71) L/h
FdCyd Cmax/Dose [8]: 6.4 (1.6) µg/L / mg
FdCyd Cl/F [9]: 65.8 (1.41) L/h
FdCyd Cmax/Dose [9]: 7.1 (1.6) µg/L / mg
FdCyd Cl/F [10]: 115 (2.26) L/h
FdCyd Cmax/Dose [10]: 4.4 (2.1) µg/L / mg
FdCyd peak concentrations at the oral RP2D (160 mg) relative to those after the IV FdCyd RP2D of 100 mg/m^2 (comparison with ref 8): approximately 20%
Tmax [11]: ~1.2 h
Vd/F [11]: 98 L
bioavailability (human, plasma, oral, from previous clearance (142 mL/min/m^2) vs current Cl/F (123 L/h), read-out: FdCyd bioavailability in the current study): ~12%
Tmax [12]: 1.3 h
Vd/F [12]: 111 L
half-life [12]: 36 min
Tmax [13]: 0.9 h
Vd/F [13]: 56 L
half-life [13]: 30 min
AUC(0-inf) [14]: 140 ng·h/mL
Cmax [14]: 90 ng/mL
Tmax [14]: 0.9 h
Vd/F [14]: 187 L
half-life [14]: 36 min
AUC(0-inf) [15]: 630 ng·h/mL
Cmax [15]: 290 ng/mL
Tmax [15]: 1 h
Vd/F [15]: 90 L
half-life [15]: 42 min
AUC(0-inf) [16]: 1060 ng·h/mL
Cmax [16]: 530 ng/mL
Tmax [16]: 1.5 h
Vd/F [16]: 139 L
half-life [16]: 66 min
Cmax [17]: 890 ng/mL
Tmax [17]: 1.2 h
Vd/F [17]: 62 L
half-life [17]: 36 min
AUC(0-inf) [18]: 1200 ng·h/mL
Cmax [18]: 580 ng/mL
Tmax [18]: 1.4 h
Vd/F [18]: 114 L
half-life [18]: 36 min
AUC(0-inf) [19]: 630 ng·h/mL
Cmax [19]: 380 ng/mL
Tmax [19]: 0.8 h
Vd/F [19]: 63 L
half-life [19]: 30 min
AUC(0-inf) [20]: 1220 ng·h/mL
Cmax [20]: 570 ng/mL
Tmax [20]: 1.5 h
Vd/F [20]: 44 L
half-life [20]: 30 min
concentration at 2 h (human, plasma FdCyd at 2 h, day 1, DL10: FdCyd 60 mg + THU 6000 mg oral (n=8), geom. mean (geom. SD), read-out: FdCyd2h-D1): 317 ng/mL
Relationship between week 1 cumulative FdCyd exposure and occurrence of DLT (in vivo): no statistically significant relationship
FdCyd dose from which the target Cmax of 1 µM (245 ng/mL) was reached by individual patients (oral FdCyd with THU): ≥ 60 mg
FdCyd2h-D1 (plasma FdCyd at 2 h, day 1, DL2: FdCyd 60 mg + THU 3000 mg oral (n=4), geom. mean (geom. SD)): 0.203 (3.87) mg/L
FdCyd2h-D1 (plasma FdCyd at 2 h, day 1, DL3: FdCyd 90 mg + THU 3000 mg oral (n=3), geom. mean (geom. SD)): 0.525 (1.79) mg/L
FdCyd2h-D1 (plasma FdCyd at 2 h, day 1, DL4: FdCyd 120 mg + THU 3000 mg oral (n=3), geom. mean (geom. SD)): 0.611 (3.17) mg/L
FdCyd2h-D1 (plasma FdCyd at 2 h, day 1, DL5-9: FdCyd 160 mg + THU 3000 mg oral (n=31), geom. mean (geom. SD)): 0.505 (1.92) mg/L
FdCyd2h-D1 (plasma FdCyd at 2 h, day 1, DL11: FdCyd 80 mg + THU 6000 mg oral (n=3), geom. mean (geom. SD)): 0.571 (1.64) mg/L
FdCyd2h-D2 [21]: 0.076 (3.80) mg/L
FdCyd2h-D2 [22]: 0.169 (3.80) mg/L
FdCyd2h-D2 [23]: 0.449 (1.55) mg/L
FdCyd2h-D2 [24]: 0.499 (9.47) mg/L
FdCyd2h-D2 [25]: 0.595 (3.29) mg/L
FdCyd2h-D2 [26]: 0.559 (1.63) mg/L
FdCyd2h-D2 [27]: 0.931 (1.99) mg/L
FdCyd2h-D3 [21]: 0.042 (2.6) mg/L
FdCyd2h-D3 [22]: 0.145 (1.14) mg/L
FdCyd2h-D3 [23]: 0.460 (2.89) mg/L
FdCyd2h-D3 [24]: 0.891 (2.08) mg/L
FdCyd2h-D3 [25]: 0.650 (1.98) mg/L
FdCyd2h-D3 [26]: 0.584 (1.60) mg/L
FdCyd2h-D3 [27]: 0.745 (2.48) mg/L
